Source: the supplement of paper PMC11208160

Experiment: recombinant barcode read abundance after kanamycin selection (control-corrected) (log10(CPM+1)); higher = more efficient recombination; sequences stand for … in AGTGCAGAGAAAATCGGCCAGTTTTCTCTGCCTGCAGTCCGCATGCCGT…AGATTTATGCAGCGGACTGCCTTTCTCCCAAAGTGATAAACCGGACAGTATCATGGACCGGTTTTCCCGGTAATCCGTATTTGCAAGGTTGGTTTCACT; site = the 11-nt target
Description: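 Pooled E. coli target-specificity screen for the IS621 bridge recombinase. Each library plasmid pairs an 11-nt target (CT core) with a bridge RNA whose target-binding loop (9-nt LTG + 4-nt RTG) is reprogrammed; the rest of the 177-nt WT IS621 bridge RNA scaffold is fixed. The plasmid is co-electroporated with a WT donor plasmid; recombinase is induced with 0.1 mM IPTG and recombinants are selected on kanamycin. Recombinant barcodes are sequenced, converted to CPM, averaged over two biological replicates and corrected by the unselected control CPM. Molecule = full bridge RNA written as DNA: LTG = specificity nt 1-9, RTG = reverse complement of specificity nt 8-11, in the WT scaffold.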
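Further: IS621 recombinase and bridge RNA in Escherichia coli cells.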

“AACCCTACTTGGGTTCTAACCTGTTGCCT (site GACCCTACTAG)” and “AGGAGCCCTTGGGTTCTAACCTGTTGCTG (site AGGAGCCCTTA)” are within 0.2 log units of each other in “recombinant barcode read abundance (log10)” value: 0.0455 for the first, 0.194 for the second.

Compared with “TGGTCTACTTGGGTTCTAACCTGTTGCTT (site TGCTCTACTAA)”, “TGCCTATCTTGGGTTCTAACCTGTTGCCT (site TGCCTATCTAG)” is higher in “recombinant barcode read abundance (log10)” value: 0.0743 for the first, 0.28 for the second.

Going from “CTTCAGACTTGGGTTCTAACCTGTTGCTA (site CTTCAGACTTA)” to “CATAGCCCTTGGGTTCTAACCTGTTGCAT (site CATAGCCCTAT)”, the “recombinant barcode read abundance (log10)” value falls from 1.43 to 1.11.

“GTGTTTCCTTGGGTTCTAACCTGTTGCAT (site GTGTGTCCTAT)” and “CCAAGCCCTTGGGTTCTAACCTGTTGCCT (site CCAAGCTCTAG)” are within 0.2 log units of each other in “recombinant barcode read abundance (log10)” value: 0.0468 for the first, 0.0835 for the second.

First: AAGCAAACTTGGGTTCTAACCTGTTGCCT (site AAGCAAACTAG)
Second: TTCTGCGCTTGGGTTCTAACCTGTTGCCT (site TTCTGCGCTAG)
The “recombinant barcode read abundance (log10)” value of the first is lower: 0.66 for the first, 1.2 for the second.

Going from “AGTTGCCCTTGGGTTCTAACCTGTTGCCT (site AGTTGCCCTAG)” to “CCGCGTGCTTGGGTTCTAACCTGTTGCCT (site CTGCGTGCTAG)”, the “recombinant barcode read abundance (log10)” value falls from 0.457 to 0.0444.

Compared with “TGACGTCCTTGGGTTCTAACCTGTTGCAT (site TGACGTCCTAT)”, “CACGGGACTTGGGTTCTAACCTGTTGCAG (site CACGGGACTCT)” is higher in “recombinant barcode read abundance (log10)” value: 0.695 for the first, 2.58 for the second.

First: TCGTTCGCTTGGGTTCTAACCTGTTGCCG (site GTCAGATCTAA)
Second: ACGCACTCTTGGGTTCTAACCTGTTGCCT (site ACGCAGTCTAG)
The “recombinant barcode read abundance (log10)” value of the first is higher: 0.37 for the first, 0.109 for the second.

“TTCAAGTCTTGGGTTCTAACCTGTTGCCT (site TTCAAGTCTAG)” and “TTCGGGCCTTGGGTTCTAACCTGTTGCCT (site TTCGGGCCTAG)” are within 0.2 log units of each other in “recombinant barcode read abundance (log10)” value: 0.33 for the first, 0.169 for the second.

“CTCGTCACTTGGGTTCTAACCTGTTGCCT (site CTCGTTACTAG)” and “TGATCTCCTTGGGTTCTAACCTGTTGCAT (site TGATCTCCTAT)” are within 0.2 log units of each other in “recombinant barcode read abundance (log10)” value: 0.0923 for the first, 0.28 for the second.

Going from “GAAGAGCCTTGGGTTCTAACCTGTTGCCT (site GAAGTGCCTAG)” to “TTCTAGTCTTGGGTTCTAACCTGTTGCTA (site TTCTAGTCTTA)”, the “recombinant barcode read abundance (log10)” value rises from 0.0759 to 0.416.

First: GTGGTTCCTTGGGTTCTAACCTGTTGCCT (site GTTGGTCCTAG)
Second: GGACGTCCTTGGGTTCTAACCTGTTGCCT (site GGACGTCCTAG)
The “recombinant barcode read abundance (log10)” value of the first is lower: 0.112 for the first, 0.734 for the second.

Going from “CGAGGTTCTTGGGTTCTAACCTGTTGCCT (site CGAGGTTCTAG)” to “AGTCATACTTGGGTTCTAACCTGTTGCCA (site GACGTGTCTAC)”, the “recombinant barcode read abundance (log10)” value falls from 1.06 to 0.0524.

“GAATGTCCTTGGGTTCTAACCTGTTGCAT (site GCATGTCCTAT)” and “TGACGTCCTTGGGTTCTAACCTGTTGCAT (site TGACGTCCTAC)” are within 0.2 log units of each other in “recombinant barcode read abundance (log10)” value: 0.0491 for the first, 0.0943 for the second.

“CTGGACCCTTGGGTTCTAACCTGTTGCCG (site GATTCGACTAC)” and “CTATGACCTTGGGTTCTAACCTGTTGCCT (site CTATGACCTAT)” are within 0.2 log units of each other in “recombinant barcode read abundance (log10)” value: 0.0386 for the first, 0.104 for the second.

Going from “GAGTGGCCTTGGGTTCTAACCTGTTGCGG (site GAGTGGCCTCC)” to “CAGTTAGCTTGGGTTCTAACCTGTTGCCT (site CAGTTGGCTAG)”, the “recombinant barcode read abundance (log10)” value falls from 1.84 to 0.0405.

“ATGGGCCCTTGGGTTCTAACCTGTTGCTA (site ATGGGCCCTGA)” and “TTACGGGCTTGGGTTCTAACCTGTTGCGG (site TTACGTGCTCC)” are within 0.2 log units of each other in “recombinant barcode read abundance (log10)” value: 0.288 for the first, 0.189 for the second.

“GTGGGAACTTGGGTTCTAACCTGTTGCTT (site TCCTATCCTTC)” and “GGTGCTCCTTGGGTTCTAACCTGTTGCAC (site GGTGCTCCTCT)” are within 0.2 log units of each other in “recombinant barcode read abundance (log10)” value: 0.0252 for the first, 0.04 for the second.

“ATCTTACCTTGGGTTCTAACCTGTTGCCT (site ATCTTATCTAG)” and “TTGCAAACTTGGGTTCTAACCTGTTGCCT (site TTGCCAACTAG)” are within 0.2 log units of each other in “recombinant barcode read abundance (log10)” value: 0.109 for the first, 0.0256 for the second.

First: TTACTAGCTTGGGTTCTAACCTGTTGCGT (site TTACTAGCTAC)
Second: CATATCCCTTGGGTTCTAACCTGTTGCAT (site CATATCCCTAT)
The “recombinant barcode read abundance (log10)” value of the first is higher: 1.98 for the first, 1.33 for the second.

“CGAATCCCTTGGGTTCTAACCTGTTGCCT (site CGAATCGCTAG)” and “TAGACATCTTGGGTTCTAACCTGTTGCTC (site TAGCCATCTGA)” are within 0.2 log units of each other in “recombinant barcode read abundance (log10)” value: 0.0332 for the first, 0.0147 for the second.

“AGGGGAGCTTGGGTTCTAACCTGTTGCCT (site AGGGCAGCTAG)” and “TACCTATCTTGGGTTCTAACCTGTTGCCT (site TGCCTATCTAG)” are within 0.2 log units of each other in “recombinant barcode read abundance (log10)” value: 0.109 for the first, 0.0136 for the second.

Compared with “GAACTCTCTTGGGTTCTAACCTGTTGCTA (site GAACTCTCTTA)”, “TCCTGGGCTTGGGTTCTAACCTGTTGCCG (site TTATGGGCTCG)” is lower in “recombinant barcode read abundance (log10)” value: 1.66 for the first, 0.0305 for the second.

Compared with “CAATGGTCTTGGGTTCTAACCTGTTGCAT (site CAATGGTCTAA)”, “GAGAGGTCTTGGGTTCTAACCTGTTGCGT (site GAGAGGTCTAC)” is higher in “recombinant barcode read abundance (log10)” value: 0.409 for the first, 2.5 for the second.

Going from “TTAGTCCCTTGGGTTCTAACCTGTTGCCG (site TTAGTCCCTCG)” to “CTAACGACTTGGGTTCTAACCTGTTGCGG (site CTAGCGACTCC)”, the “recombinant barcode read abundance (log10)” value falls from 2.14 to 0.158.

Going from “TAGGTGCCTTGGGTTCTAACCTGTTGCAT (site TAGGTGCCTAT)” to “GTGTATCCTTGGGTTCTAACCTGTTGCTT (site GTGCCTCCTAA)”, the “recombinant barcode read abundance (log10)” value falls from 1.79 to 0.0308.

Going from “CTACGTACTTGGGTTCTAACCTGTTGCCT (site GTACGTACTAG)” to “CACGAGACTTGGGTTCTAACCTGTTGCCT (site CACGAGGCTAG)”, the “recombinant barcode read abundance (log10)” value rises from 0.0661 to 1.02.

Going from “GACGGATCTTGGGTTCTAACCTGTTGCCT (site GACGGATCTAA)” to “CGACTGCCTTGGGTTCTAACCTGTTGCGT (site CGAATGTCTAC)”, the “recombinant barcode read abundance (log10)” value falls from 0.842 to 0.527.

Compared with “GTCTGATCTTGGGTTCTAACCTGTTGCCT (site GTCTAATCTAG)”, “GGACCTCCTTGGGTTCTAACCTGTTGCTT (site GGACCTCCTAG)” is higher in “recombinant barcode read abundance (log10)” value: 0.0854 for the first, 1.27 for the second.

First: TACATCCCTTGGGTTCTAACCTGTTGCCA (site TACATCCCTAG)
Second: CATCATTCTTGGGTTCTAACCTGTTGCCT (site CATGATTCTAG)
The “recombinant barcode read abundance (log10)” value of the first is higher: 0.5 for the first, 0.118 for the second.

“GTGTGTACTTGGGTTCTAACCTGTTGCCA (site GAGTGAACTTG)” and “GCTAGTTCTTGGGTTCTAACCTGTTGCTT (site ACTCGTTCTAA)” are within 0.2 log units of each other in “recombinant barcode read abundance (log10)” value: 0.0252 for the first, 0.0742 for the second.

“CAGCGGCCTTGGGTTCTAACCTGTTGCCT (site CAGAGGCCTAG)” and “TCGTGAGCTTGGGTTCTAACCTGTTGCCT (site TAGTGAGCTAG)” are within 0.2 log units of each other in “recombinant barcode read abundance (log10)” value: 0.191 for the first, 0.0646 for the second.

Compared with “CATCGGACTTGGGTTCTAACCTGTTGCAA (site CATCGGACTTT)”, “CACTTGTCTTGGGTTCTAACCTGTTGCCT (site CACTTGTCTAG)” is higher in “recombinant barcode read abundance (log10)” value: 1.14 for the first, 1.7 for the second.
